The values that follow come from patent US9205091B2, “Diazeniumdiolated compounds, pharmaceutical compositions, and method of treating cancer” (The United States of America, as represented by the …, priority 2009, dated 2015).

Series [1] in a line: Body weight of xenograft mice, JS-K (Example 3). It counts as in vivo. To be noted: 6 μmol/kg i.v., three times a week for three weeks. The procedure: H1944 or H1703 cells are injected at 5×10^6 s.c. into a flank of 7-week-old female athymic NCr-nu/nu mice (Charles River, Wilmington, Mass.). The drug injections are initiated when the tumors reached 2×2×2 mm (typically 3-4 weeks). JS-K is formulated in Pluronic P123 (P123) (BASF, Florham Park, N.J.) micelles. Animals are treated three times a week for three weeks with i.v. tail vein injections of either vehicle (2.25% P123 in PBS) or JS-K (6 μmol/kg in the vehicle). Tumors are measured using a caliper twice a week, and the tumor volumes are calculated using a formula for ellipsoid volume, π/6×L×W×H (Tomayko and Reynolds, 1989). The non-parametric Mann-Whitney test is utilized for statistical comparisons of tumor volumes at each time point. Body weights are taken before each drug injection. Animals are sacrificed 2 h after the last drug injection. Blood is collected by cardiac puncture under isoflurane anesthesia, for testing for cytokines. Cytokines in serum are measured using a mouse Th1/2 multiplex assay (Meso Scale Discovery, Gaithersburg, Md.), according to the manufacturer's protocol. There were 9-13 mice/group at termination.

A further series deals with NSCLC cell lines. Briefly: MTT proliferation assay, JS-K, NSCLC panel summary. It counts as cell-based, human. Conditions: six cell lines; read-out: IC50 range of the sensitive cell lines. The procedure:
JS-K is synthesized as described previously (Saavedra et al., J. Org. Chem., 66: 3090-3098(2001)). Cell lines are obtained from the American Type Culture Collection (Manassas, Va.) and cultured according to the supplier's protocol. For proliferation assays cells are seeded at 2×10^4 per well in 96-well plates and allowed to adhere for 24 h. JS-K is prepared as 10 mM stock solution in DMSO. Increasing drug concentrations in 10 μL of PBS are added to 100 μL of the culture medium for 48 h. MTT assay (Promega, Madison, Wis.) is performed according to the manufacturer's protocol. Each concentration is represented in six repeats, and the screening is performed as at least two independent experiments. IC50 values are calculated using Sigma Plot software (Systat Software, Chicago, Ill.).

Structures are written as SMILES.

With `CCOC(=O)N1CCN(/[N+]([O-])=N/Oc2ccc([N+](=O)[O-])cc2[N+](=O)[O-])CC1` [Compound 1], in series [1], the “effect on body weight” value is “did not affect body weight”. The IC50 with NSCLC cell lines is 330 to 1010 nM.
